According to paper doi:10.1101/2022.09.08.507076v2 (biorxiv, 2022):

Key:
Assay type in all cases: biochemical
CYP2D6 = CYP2D6 (Homo sapiens, UniProt P10635); test: recombinant CYP inhibition, fluorescence
CYP3A4 = CYP3A4 (Homo sapiens, UniProt P08684); test: recombinant CYP inhibition, fluorescence
CYP2C9 = CYP2C9 (Homo sapiens, UniProt P11712); test: recombinant CYP inhibition, fluorescence
CYP2C19 = CYP2C19 (Homo sapiens, UniProt P33261); test: recombinant CYP inhibition, fluorescence
CYP1A2 = biological target: T1, CYP1A2 (Homo sapiens, UniProt P05177); test: recombinant CYP inhibition, fluorescence
T1 sequence (P05177 2-516): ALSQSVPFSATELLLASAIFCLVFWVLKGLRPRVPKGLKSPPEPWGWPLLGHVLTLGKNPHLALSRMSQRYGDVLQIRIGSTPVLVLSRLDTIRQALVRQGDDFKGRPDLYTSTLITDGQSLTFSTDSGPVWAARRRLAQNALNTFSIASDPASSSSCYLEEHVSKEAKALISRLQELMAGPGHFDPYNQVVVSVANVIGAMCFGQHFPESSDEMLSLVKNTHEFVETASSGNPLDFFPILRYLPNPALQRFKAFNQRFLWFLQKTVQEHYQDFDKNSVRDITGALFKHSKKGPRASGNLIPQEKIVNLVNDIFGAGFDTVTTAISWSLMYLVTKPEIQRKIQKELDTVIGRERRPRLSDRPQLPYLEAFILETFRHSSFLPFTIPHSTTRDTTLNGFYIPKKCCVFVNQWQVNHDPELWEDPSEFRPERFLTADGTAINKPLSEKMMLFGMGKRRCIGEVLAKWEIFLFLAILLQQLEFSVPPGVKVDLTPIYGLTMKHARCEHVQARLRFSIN

human topoisomerase IIα = human topoisomerase IIα (Homo sapiens, UniProt P11388); test: human topoisomerase IIα decatenation assay
Sequence of human topoisomerase IIα (P11388 whole entry): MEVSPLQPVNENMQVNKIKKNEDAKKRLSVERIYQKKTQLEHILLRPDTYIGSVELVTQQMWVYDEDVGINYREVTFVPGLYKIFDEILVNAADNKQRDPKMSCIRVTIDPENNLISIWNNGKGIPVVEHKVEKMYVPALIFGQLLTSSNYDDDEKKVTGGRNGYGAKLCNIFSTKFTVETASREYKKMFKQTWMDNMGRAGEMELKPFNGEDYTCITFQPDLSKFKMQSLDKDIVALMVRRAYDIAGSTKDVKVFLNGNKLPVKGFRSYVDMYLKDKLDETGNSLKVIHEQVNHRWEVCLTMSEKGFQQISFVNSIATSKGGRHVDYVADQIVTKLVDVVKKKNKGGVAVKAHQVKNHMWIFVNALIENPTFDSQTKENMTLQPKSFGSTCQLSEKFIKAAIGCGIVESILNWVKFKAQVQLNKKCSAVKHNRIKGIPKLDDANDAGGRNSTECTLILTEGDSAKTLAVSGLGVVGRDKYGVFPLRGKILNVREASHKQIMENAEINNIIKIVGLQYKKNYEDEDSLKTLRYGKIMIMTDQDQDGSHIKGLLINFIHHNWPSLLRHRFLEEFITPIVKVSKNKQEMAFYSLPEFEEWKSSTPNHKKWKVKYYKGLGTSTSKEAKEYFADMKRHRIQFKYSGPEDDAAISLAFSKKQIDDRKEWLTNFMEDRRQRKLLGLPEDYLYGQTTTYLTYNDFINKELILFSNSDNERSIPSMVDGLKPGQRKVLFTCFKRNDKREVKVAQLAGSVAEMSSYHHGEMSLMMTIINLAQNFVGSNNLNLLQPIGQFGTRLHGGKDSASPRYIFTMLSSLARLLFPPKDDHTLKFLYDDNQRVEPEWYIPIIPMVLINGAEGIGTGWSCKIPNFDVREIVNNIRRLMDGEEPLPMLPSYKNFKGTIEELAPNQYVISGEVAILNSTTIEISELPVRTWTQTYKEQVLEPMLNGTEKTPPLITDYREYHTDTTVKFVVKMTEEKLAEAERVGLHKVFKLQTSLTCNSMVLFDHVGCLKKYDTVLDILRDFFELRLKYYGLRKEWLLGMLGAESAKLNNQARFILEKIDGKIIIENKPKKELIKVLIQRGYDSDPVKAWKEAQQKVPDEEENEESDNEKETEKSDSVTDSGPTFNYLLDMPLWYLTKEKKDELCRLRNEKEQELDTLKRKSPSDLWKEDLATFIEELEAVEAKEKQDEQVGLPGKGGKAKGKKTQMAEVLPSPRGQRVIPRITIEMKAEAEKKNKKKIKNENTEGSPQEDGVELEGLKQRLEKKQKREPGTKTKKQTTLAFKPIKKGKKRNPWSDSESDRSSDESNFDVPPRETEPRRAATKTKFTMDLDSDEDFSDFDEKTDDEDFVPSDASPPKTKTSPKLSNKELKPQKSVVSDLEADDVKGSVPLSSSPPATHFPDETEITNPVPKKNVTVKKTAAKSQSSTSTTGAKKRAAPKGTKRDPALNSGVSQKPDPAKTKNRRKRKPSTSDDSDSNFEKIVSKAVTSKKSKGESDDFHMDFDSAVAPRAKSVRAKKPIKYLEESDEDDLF

Sequence of CYP2D6 (P10635 whole entry): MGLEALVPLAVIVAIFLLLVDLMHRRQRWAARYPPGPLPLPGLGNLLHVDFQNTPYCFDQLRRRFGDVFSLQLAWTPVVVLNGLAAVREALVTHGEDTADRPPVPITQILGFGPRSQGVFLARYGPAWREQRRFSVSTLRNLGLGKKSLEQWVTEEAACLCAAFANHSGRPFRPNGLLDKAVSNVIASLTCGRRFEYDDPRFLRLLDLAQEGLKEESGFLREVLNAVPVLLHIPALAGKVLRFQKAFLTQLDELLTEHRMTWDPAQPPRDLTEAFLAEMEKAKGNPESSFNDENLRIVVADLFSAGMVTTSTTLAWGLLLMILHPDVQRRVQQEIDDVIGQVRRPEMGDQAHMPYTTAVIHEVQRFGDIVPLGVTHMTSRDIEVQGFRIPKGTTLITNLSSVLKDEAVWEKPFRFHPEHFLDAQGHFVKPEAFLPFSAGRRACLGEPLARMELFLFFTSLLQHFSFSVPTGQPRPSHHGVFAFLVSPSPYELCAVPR
Sequence of CYP2C9 (P11712 whole entry): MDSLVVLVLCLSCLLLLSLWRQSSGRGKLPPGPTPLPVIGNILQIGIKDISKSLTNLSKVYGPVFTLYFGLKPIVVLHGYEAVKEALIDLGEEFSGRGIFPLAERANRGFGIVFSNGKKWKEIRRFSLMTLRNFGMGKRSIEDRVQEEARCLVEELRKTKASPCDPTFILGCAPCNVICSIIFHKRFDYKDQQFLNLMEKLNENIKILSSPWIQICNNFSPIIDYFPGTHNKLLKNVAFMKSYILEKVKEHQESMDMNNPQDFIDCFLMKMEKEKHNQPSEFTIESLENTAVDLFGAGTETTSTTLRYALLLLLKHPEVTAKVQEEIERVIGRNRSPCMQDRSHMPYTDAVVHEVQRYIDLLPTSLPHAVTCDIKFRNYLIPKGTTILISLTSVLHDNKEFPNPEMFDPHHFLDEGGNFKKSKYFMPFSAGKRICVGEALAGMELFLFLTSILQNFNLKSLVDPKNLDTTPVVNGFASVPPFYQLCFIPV
Sequence of CYP3A4 (P08684 2-503): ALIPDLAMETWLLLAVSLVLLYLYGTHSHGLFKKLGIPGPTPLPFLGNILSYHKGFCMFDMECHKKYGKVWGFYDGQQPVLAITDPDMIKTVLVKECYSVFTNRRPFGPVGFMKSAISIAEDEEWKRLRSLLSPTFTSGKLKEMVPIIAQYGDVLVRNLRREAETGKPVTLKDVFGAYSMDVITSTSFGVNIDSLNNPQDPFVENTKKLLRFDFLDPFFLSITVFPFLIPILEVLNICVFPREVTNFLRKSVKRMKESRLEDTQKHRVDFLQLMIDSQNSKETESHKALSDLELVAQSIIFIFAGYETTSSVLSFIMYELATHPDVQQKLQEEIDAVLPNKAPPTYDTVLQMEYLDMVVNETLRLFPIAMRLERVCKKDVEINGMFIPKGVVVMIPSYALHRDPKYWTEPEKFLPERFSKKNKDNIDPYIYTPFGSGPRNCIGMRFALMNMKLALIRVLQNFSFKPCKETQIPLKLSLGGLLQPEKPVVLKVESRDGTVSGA
Sequence of CYP2C19 (P33261 whole entry): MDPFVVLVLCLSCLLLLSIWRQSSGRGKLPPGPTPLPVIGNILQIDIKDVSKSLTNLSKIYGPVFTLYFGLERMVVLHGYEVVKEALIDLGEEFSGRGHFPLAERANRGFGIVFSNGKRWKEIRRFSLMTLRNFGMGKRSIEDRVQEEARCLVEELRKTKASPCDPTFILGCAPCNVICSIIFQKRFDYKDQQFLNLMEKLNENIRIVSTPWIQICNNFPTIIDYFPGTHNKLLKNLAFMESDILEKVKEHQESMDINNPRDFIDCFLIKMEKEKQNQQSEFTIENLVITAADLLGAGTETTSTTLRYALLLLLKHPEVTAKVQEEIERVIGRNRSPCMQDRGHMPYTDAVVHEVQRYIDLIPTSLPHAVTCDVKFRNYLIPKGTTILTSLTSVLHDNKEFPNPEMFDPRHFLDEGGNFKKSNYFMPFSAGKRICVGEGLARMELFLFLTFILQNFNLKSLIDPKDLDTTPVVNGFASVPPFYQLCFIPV

| SMILES | IC50 (CYP2D6) [µM] | IC50 (CYP3A4) [µM] | IC50 (CYP2C9) [µM] | IC50 (CYP2C19) [µM] | IC50 (CYP1A2) [µM] | IC50 (human topoisomerase IIα) [µM] |
| --- | --- | --- | --- | --- | --- | --- |
| CCNC(=O)Nc1nc2c(F)c(-c3cnc(N4CCC(C(=O)O)CC4)nc3)cc(-c3ccccn3)c2s1 [RBx 10080758] | > 10 | > 10 | > 10 | > 10 | > 10 | > 959 |
| CCNC(=O)Nc1nc2c(F)c(-c3ccc(COP(=O)(O)O)nc3)cc(-c3ccccn3)c2s1 [RBx 10115912] | > 10 | > 10 | > 10 | > 10 | > 10 | > 993 |
